Patent publication US10184112B2, “Culture medium additive for use in serum-free culturing of animal cell, kit and use thereof” (Two Cells Co., Ltd., priority 2006, dated 2019)
Entries after “also recorded” stand apart in the source; their conditions may differ.

system: Akt; experiment: Mitogenic signal transduction, western blot for phosphorylated Akt (FIGS. 11, 12); format: cell-based; details: human mesenchymal stem cells stimulated; compared with controlled cells (not stimulated)
Procedure: For the purpose of clarifying a mechanism of cell proliferation in a serum-free culture medium, study was further conducted on activation of a mitogenic signal transduction system caused by each additive factor added into a serum-free culture medium. An active state of the mitogenic signal transduction system caused by each additive factor was analyzed by a western blot method. Here, in protein phosphoenzymes that are particularly closely related to cell proliferation, an extracellular signal control kinase Erk 1/2 and an Akt (a protein phosphoenzyme located downstream to PI3K, and related to regulations of cell functions) were focused in the present example. When the Erk1 1/2 and the Akt are phosphorylated, they are converted into active forms. In a culture medium containing 10% FBS on a 12-well plate, human mesenchymal stem cells (three cell lines) were cultured until the cells were in a subconfluent state. The cultured cells were washed twice with PBS, and were then further cultured for 16 hours in a serum-free culture medium containing 1.25 mg/ml of BSA (bovine serum albumin). […] Proteins thus separated into fractions were transferred on a PVDF membrane (made by Millipore Co.), and then, the fractions were analyzed with antiphosphorylation-specific Erk 1/2 antibody, or antiphosphorylation-specific Akt antibody (both are made by Cell Signaling technology Inc.).

Molecule | phosphorylation of the Akt
HGF: growth factor added to the serum-free culture medium | also promoted
3-sn-phosphatidic acid from egg yolk | strongly promoted

system: Erk 1/2; experiment: Mitogenic signal transduction, western blot for phosphorylated Erk 1/2 (FIGS. 11, 12); format: cell-based; details: human mesenchymal stem cells stimulated; compared with controlled cells (not stimulated)
Procedure: For the purpose of clarifying a mechanism of cell proliferation in a serum-free culture medium, study was further conducted on activation of a mitogenic signal transduction system caused by each additive factor added into a serum-free culture medium. An active state of the mitogenic signal transduction system caused by each additive factor was analyzed by a western blot method. Here, in protein phosphoenzymes that are particularly closely related to cell proliferation, an extracellular signal control kinase Erk 1/2 and an Akt (a protein phosphoenzyme located downstream to PI3K, and related to regulations of cell functions) were focused in the present example. When the Erk1 1/2 and the Akt are phosphorylated, they are converted into active forms. […] The cultured cells were washed twice with PBS, and were then further cultured for 16 hours in a serum-free culture medium containing 1.25 mg/ml of BSA (bovine serum albumin). After that, the cultured cells were incubated for minutes respectively: (i) in stimulating solutions respectively containing growth factors (E: EGF, F: FGF, G: PDGF, H: HGF, I: insulin, J: TGF-β), dexamethasone (D), transferrin (T); […] B1, A6: phosphatidic acid, A7: phosphatidyl choline); and (iii) in a controlling solution containing none of them. Further, each of the stimulating solutions, and the controlling solution were removed by suction on ice, and then, the cells were washed twice with PBS. The cells thus washed were dissolved in lysis buffer. The resultant cell lysis solution was centrifuged by 6.500 g for 10 minutes, and its supernatant liquid was electrophoresed on 10% SDS-polyacrylamide gel. Proteins thus separated into fractions were transferred on a PVDF membrane (made by Millipore Co.), and then, the fractions were analyzed with antiphosphorylation-specific Erk 1/2 antibody, or antiphosphorylation-specific Akt antibody (both are made by Cell Signaling technology Inc.).

Molecule | phosphorylation of the Erk 1/2
CCCCCCCC/C=C\CCCCCCCC(=O)O [oleic acid] | promoted
HGF: growth factor added to the serum-free culture medium | more phosphorylated; also recorded: promoted in view of concentration dependence
PDGF | more phosphorylated
CCCCC/C=C\C/C=C\C/C=C\C/C=C\CCCC(=O)O [arachidonic acid] | promoted
insulin: medium supplement | more phosphorylated
EGF: epidermal growth factor | more phosphorylated
CCCCC/C=C\C/C=C\CCCCCCCC(=O)O [linoleic acid] | promoted
FGF: growth factor of the fibroblast growth factor family, preferably FGF-2 (bFGF) | more phosphorylated
3-sn-phosphatidic acid from egg yolk | strongly promoted
3-sn-phosphatidyl choline from egg yolk | promoted

system: human mesenchymal stem cell; experiment: not given; details: added to a culture medium containing 10% FBS; cited from earlier work

Molecule | proliferation of a human mesenchymal stem cell | wingless/int (wnt) signal pathway
[Cl-].[Li+] [lithium chloride] | promoting proliferation | activates
